Data on 14 molecules can be found in US11325896B2, “Antagonists of the muscarinic acetylcholine receptor M4” (Vanderbilt University, priority 2017, dated 2022).

Experiment [1] concerns the target T1, human mAChR M4 (Homo sapiens, UniProt P08173).
T1 construct: expressed in transfected cells; host or cells: CHO-K1 (ATCC), stably co-expressing the chimeric G protein Gqi5
T1 sequence (P08173 1-479): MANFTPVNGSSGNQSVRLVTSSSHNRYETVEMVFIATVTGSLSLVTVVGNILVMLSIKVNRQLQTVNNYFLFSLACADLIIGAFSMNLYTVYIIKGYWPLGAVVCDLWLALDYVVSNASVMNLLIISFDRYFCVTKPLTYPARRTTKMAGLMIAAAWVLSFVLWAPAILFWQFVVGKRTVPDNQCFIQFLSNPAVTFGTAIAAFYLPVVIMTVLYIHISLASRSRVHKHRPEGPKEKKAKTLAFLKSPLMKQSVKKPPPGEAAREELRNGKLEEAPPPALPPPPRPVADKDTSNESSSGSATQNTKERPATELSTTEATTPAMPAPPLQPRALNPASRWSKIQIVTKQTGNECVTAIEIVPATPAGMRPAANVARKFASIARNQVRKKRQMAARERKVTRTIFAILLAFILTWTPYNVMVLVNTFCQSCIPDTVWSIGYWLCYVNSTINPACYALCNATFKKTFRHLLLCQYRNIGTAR
Put plainly: mAChR M4 cell-based functional assay (calcium flux, decrease of EC80 acetylcholine response). The conditions noted are these: for remaining activity at 30 µM: % ACh maximum at 30 μM, human M4, read-out: Emin; for IC50: M4/Gqi5/CHO-K1 cells, decrease of response to EC80 acetylcholine. The method, then:
Human or rat M4 cDNA, along with the chimeric G protein Gqi5, were transfected into Chinese hamster ovary (CHO-K1) cells purchased from the American Type Culture Collection using Lipofectamine2000. M4/Gqi5/CHO cells were grown in Ham's F-12 medium containing 10% heat-inactivated fetal bovine serum (FBS), 20 mM HEPES, 500 μg/mL G418 sulfate, and 200 μg/mL Hygromycin B.
For high throughput measurement of agonist-evoked increases in intracellular calcium, CHO-K1 cells stably expressing muscarinic receptors were plated in growth medium lacking G418 and hygromycin at 15,000 cells/20 μL/well in Greiner 384-well black-walled, tissue culture (TC)-treated, clear-bottom plates (VWR). Cells were incubated overnight at 37° C. and 5% CO2. The next day, cells were washed using an ELX 405 (BioTek) with assay buffer: the final volume was then aspirated to 20 μL. Next, 20 μL of a 2.3 μM stock of Fluo-4/acetoxymethyl ester (Invitrogen, Carlsbad, Calif.), prepared as a 2.3 mM stock in DMSO and mixed in a 1:1 ratio with 10% (w/v) Pluronic F-127 and diluted in assay buffer, was added to the wells and the cell plates were incubated for 50 min at 37° C. and 5% CO2. Dye was removed by washing with the ELX 405 and the final volume was aspirated to 20 μL. Compound master plates were formatted in a 10 point concentration-response curve (CRC) format (1:3 dilutions) in 100% DMSO with a starting concentration of 10 or 1 mM using a BRAVO liquid handler (Agilent). Test compound CRCs were then transferred to daughter plates (240 nL) using the Echo acoustic plate reformatter (Labcyte, Sunnyvale, Calif.) and then diluted into assay buffer (40 μL) to a 2× stock using a Thermo Fisher Combi (Thermo Fisher Scientific, Waltham, Mass.).
Calcium flux was measured using the Functional Drug Screening System (FDSS) 6000 or 7000 (Hamamatsu Corporation, Tokyo, Japan) as an increase in the fluorescent static ratio. Compounds were applied to cells (20 μL, 2×) using the automated system of the FDSS at 2 seconds into the protocol and the data were collected at 1 Hz. At 143 s, 10 μL of an EC20 concentration of the muscarinic receptor agonist acetylcholine was added (5×), followed by the addition of 12 μL of an EC80 concentration of acetylcholine at the 268 s time point (5×). Agonist activity was analyzed as a concentration-dependent increase in calcium mobilization upon compound addition. Positive allosteric modulator activity was analyzed as a concentration-dependent increase in the EC20 acetylcholine response. Antagonist activity was analyzed as a concentration-dependent decrease in the EC80 acetylcholine response; for the purposes of the tables herein, an IC50 (inhibitory concentration 50) was calculated as a concentration-dependent decrease of the response elicited by an EC80 concentration of acetylcholine. Concentration-response curves were generated using a four-parameter logistical equation in XLFit curve fitting software (IDBS, Bridgewater, N.J.) for Excel (Microsoft, Redmond, Wash.) or Prism (GraphPad Software, Inc., San Diego, Calif.) or the Dotmatics software platform (Dotmatics, Bishop's Stortford, UK).
Compounds were synthesized as described above. Activity (IC50 and Emin) was determined in the mAChR M4 cell-based functional assay as described above and the data are shown in Table 4. The compound numbers correspond to those used in Examples 1-4 and Tables 1-3.
In general terms: Calcium flux is commonly read through the fluorescence of an indicator in the cells.

Experiment [2] deals with M4 knockout mice. As to conditions: not the other four mAChR subtypes; cited from earlier work.
Experiment [3] concerns haloperidol-induced catalepsy. Put plainly: haloperidol-induced catalepsy in mice. Format: in vivo. An excerpt: Furthermore, haloperidol-induced catalepsy, a model of parkinsonian motor disability, is reduced in M4 knockout mice as compared to wild-type controls. […] The reversal by scopolamine was uncommonly robust and more pronounced than we observe with agents targeting a number of other targets being evaluated for potential antiparkinsonian effects, including metabotropic glutamate (mGlu) receptors mGlu4 or mGlu5, A2A adenosine receptors, and NMDA receptors. […] Taken together with the extensive studies of M4 modulation of basal ganglia and motor function, these studies provide compelling evidence that M4 is the dominant mAChR subtype involved in the antiparkinsonian effects of non-selective mAChR antagonists and provide support for discovery and development of selective M4 antagonists for treatment of neurodegenerative disease such as PD, dystonia, tardive dyskinesia and other movement disorders.

In general, IC50 refers to the concentration at which inhibition is half-maximal. Turning to `Cc1nn(C)cc1-c1ccc(NCC2CC3(C2)CN(CC(C)C(C)(C)C)C3)nn1` (centres unmarked) [Compound 13, 6-(1,3-dimethyl-1H-pyrazol-4-yl)-N-((2-(2,3,3-trimethylbutyl)-2-azaspiro[3.3]heptan-6-yl)methyl)pyridazin-3-amine], in experiment [1], the remaining activity at 30 µM was determined as 6.1% and the IC50 was determined as 1530 nM.

Turning to `Fc1ccc(Cl)c(-c2ccc(NCC3CC4(C3)CN(CC3CC5C=CC3C5)C4)nn2)c1` (centres unmarked) [Compound 14, N-((2-(bicyclo[2.2.1]hept-5-en-2-ylmethyl)-2-azaspiro[3.3]heptan-6-yl)methyl)-6-(2-chloro-5-fluorophenyl)pyridazin-3-amine], in experiment [1], the remaining activity at 30 µM was 2.6% and the half-maximal inhibitory concentration (IC50) was found to be 59 nM.

For the molecule `Cc1nn(C)cc1-c1ccc(NCC2CC3(C2)CN(CCC(C)(C)C)C3)nn1` [Compound 15, 6-(1,3-dimethyl-1H-pyrazol-4-yl)-N-((2-(3,3-dimethylbutyl)-2-azaspiro[3.3]heptan-6-yl)methyl)pyridazin-3-amine], in experiment [1], the remaining activity at 30 µM is 7.5% and the IC50 was 1490 nM.

With `Cc1nn(C)cc1-c1ccc(NCC2CC3(C2)CN(CC2CCCCC2)C3)nn1` [Compound 16, N-((2-(cyclohexylmethyl)-2-azaspiro[3.3]heptan-6-yl)methyl)-6-(1,3-dimethyl-1H-pyrazol-4-yl)pyridazin-3-amine], in experiment [1], the remaining activity at 30 µM was found to be 13.5% and the 50% inhibitory concentration (IC50) was 4140 nM.

Turning to `CC(=O)Nc1ccc(-c2ccc(NCC3CC4(C3)CN(CCC(C)(C)C)C4)nn2)cc1` [Compound 17, N-(4-(6-(((2-(3,3-dimethylbutyl)-2-azaspiro[3.3]heptan-6-yl)methyl)amino)pyridazin-3-yl)phenyl)acetamide], in experiment [1], the remaining activity at 30 µM was 7.8% and the IC50 is 2200 nM.

As to `CC(=O)Nc1ccc(-c2ccc(NCC3CC4(C3)CN(CC3CC5C=CC3C5)C4)nn2)cc1` (centres unmarked) [Compound 18, N-(4-(6-(((2-(bicyclo[2.2.1]hept-5-en-2-ylmethyl)-2-azaspiro[3.3]heptan-6-yl)methyl)amino)pyridazin-3-yl)phenyl)acetamide], in experiment [1], the remaining activity at 30 µM came out at 8.1% and the IC50 came to 1550 nM.

With `CC(=O)Nc1ccc(-c2ccc(NCC3CC4(C3)CN(CC3CCCCC3)C4)nn2)cc1` [Compound 19, N-(4-(6-(((2-(cyclohexylmethyl)-2-azaspiro[3.3]heptan-6-yl)methyl)amino)pyridazin-3-yl)phenyl)acetamide], in experiment [1], the remaining activity at 30 µM is 20.5% and the half-maximal inhibitory concentration (IC50) was 8140 nM.

As for `CC(C)(C)CCN1CC2(C1)CC1(CC1CNc1ccc(Cl)nn1)C2` (centres unmarked) [Compound 20, 6-Chloro-N-((7-(3,3-dimethylbutyl)-7-azadispiro[2.1.3^5.1^3]nonan-1-yl)methyl)pyridazin-3-amine], in experiment [1], the remaining activity at 30 µM was determined as 4.9% and the IC50 was determined as 450 nM.

For `Cc1nn(C)cc1-c1ccc(OCC2CC3(C2)CN(CC2CCCCC2)C3)nn1` [Compound 21, 2-(Cyclohexylmethyl)-6-(((6-(1,3-dimethyl-1H-pyrazol-4-yl)pyridazin-3-yl)oxy)methyl)-2-azaspiro[3.3]heptane], in experiment [1], the remaining activity at 30 µM was 8.6% and the concentration for half-maximal inhibition (IC50) stood at 2340 nM.

For the molecule `Cc1nn(C)cc1-c1ccc(OCC2CC3(C2)CN(CCC(C)(C)C)C3)nn1` [Compound 22, 6-(((6-(1,3-dimethyl-1H-pyrazol-4-yl)pyridazin-3-yl)oxy)methyl)-2-(3,3-dimethylbutyl)-2-azaspiro[3.3]heptane], in experiment [1], the remaining activity at 30 µM is 4.6% and the half-inhibitory concentration (IC50) was found to be 1380 nM.

Turning to `Cc1nn(C)cc1-c1ccc(OCC2CC3(C2)CN(CC2CC4C=CC2C4)C3)nn1` (centres unmarked) [Compound 23, 2-(bicyclo[2.2.1]hept-5-en-2-ylmethyl)-6-(((6-(1,3-dimethyl-1H-pyrazol-4-yl)pyridazin-3-yl)oxy)methyl)-2-azaspiro[3.3]heptane], in experiment [1], the remaining activity at 30 µM turned out to be 3.7% and the half-inhibitory concentration (IC50) is 680 nM.

In the case of `Cc1nn(C)cc1-c1ccc(OCC2CC3(C2)CN(Cc2ccccc2)C3)nn1` [Compound 24, 2-benzyl-6-(((6-(1,3-dimethyl-1H-pyrazol-4-yl)pyridazin-3-yl)oxy)methyl)-2-azaspiro[3.3]heptane], in experiment [1], the remaining activity at 30 µM was 36.4% and the 50% inhibitory concentration (IC50) amounted to 10000 nM.

With `Cc1cccnc1CN1CC2(CC(COc3ccc(-c4cn(C)nc4C)nn3)C2)C1` [Compound 25, 6-(((6-(1,3-dimethyl-1H-pyrazol-4-yl)pyridazin-3-yl)oxy)methyl)-2-((3-methylpyridin-2-yl)methyl)-2-azaspiro[3.3]heptane], in experiment [1], the remaining activity at 30 µM is 16.5% and the IC50 was determined as 4200 nM.

`CN1[C@@H]2C[C@@H](OC(=O)[C@H](CO)c3ccccc3)C[C@H]1[C@@H]1O[C@@H]12` [scopolamine]: the locomotor-activating effects entry in experiment [2] is listed as “dramatically reduced”. The “reduction of catalepsy induced by haloperidol” value in experiment [3] (M4 KO mice) is given as “ineffective”. Further, the “reversal of catalepsy induced by haloperidol” value in experiment [3] (WT mice) is reported as “completely reversed”.
